Data published in patent US20160137630A1, “INDUCTION OF GATA2 BY HDAC1 AND HDAC2 INHIBITORS” (ACETYLON PHARMACEUTICALS, INC., priority 2014, published 2016).
Where “and” joins values, the source holds several entries; their conditions need not be identical. Identical values can stand only once. Like-named read-outs stand apart in the source and are kept apart here.

Key:
HDAC1 = HDAC1 (Homo sapiens, UniProt Q13547); experiment: in vitro biochemical HDAC inhibition assay; details: read-out: IC50 HDAC1
HDAC2 = HDAC2 (Homo sapiens, UniProt Q92769); experiment: in vitro biochemical HDAC inhibition assay; details: read-out: IC50 HDAC2
HDAC3 = HDAC3 (Homo sapiens, UniProt O15379); experiment: in vitro biochemical HDAC inhibition assay; details: for IC50: read-out: IC50 HDAC3
Gata2 mRNA = experiment: induction of Gata2 mRNA in erythroid progenitors by HDAC1,2 inhibitors; further: test concentration or dose not given here; assay type: cell-based, human; details: erythroid progenitors differentiated 3 days with compound; FIG. 2A-C
Text: Human bone marrow derived CD34+ cells were expanded for 7 days as described by Sankaran et al., Science, vol. 322(5909), pp. 1839-42 (2008). Cells were then differentiated, in the presence of the indicated compound (i.e., Compounds 001, Compound Y, Compound 2005, Compound 2004, Compound 2003), for 3 days in media supporting erythropoiesis (Hu et al., “Isolation and functional characterization of human erythroblasts at distinct stages: implications for understanding of normal and disordered erythropoiesis in vivo”, Blood, vol. 121(16), pp. 3246-53 ([…])). FIG. 2A, FIG. 2B, and FIG. 2C each represents an experimental series performed on different days and with different donor cells.

Chain of HDAC3 (O15379 whole entry): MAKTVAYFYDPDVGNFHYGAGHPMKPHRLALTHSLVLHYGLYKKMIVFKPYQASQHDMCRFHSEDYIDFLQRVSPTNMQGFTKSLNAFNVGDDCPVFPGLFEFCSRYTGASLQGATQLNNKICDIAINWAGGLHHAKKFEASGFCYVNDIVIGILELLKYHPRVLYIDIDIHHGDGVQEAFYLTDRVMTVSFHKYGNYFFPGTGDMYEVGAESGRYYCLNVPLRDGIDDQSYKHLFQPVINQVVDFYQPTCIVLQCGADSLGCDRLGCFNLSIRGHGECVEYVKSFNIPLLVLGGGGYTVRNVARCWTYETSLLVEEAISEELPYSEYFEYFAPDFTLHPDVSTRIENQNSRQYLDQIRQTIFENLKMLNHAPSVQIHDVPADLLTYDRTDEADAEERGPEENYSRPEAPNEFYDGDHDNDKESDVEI
Chain of HDAC3 (Q9Y618 395-489 partner limits assumed): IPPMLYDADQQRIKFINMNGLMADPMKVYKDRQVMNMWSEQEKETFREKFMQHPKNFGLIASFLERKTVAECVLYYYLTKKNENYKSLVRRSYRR
Chain of HDAC2 (Q92769 whole entry): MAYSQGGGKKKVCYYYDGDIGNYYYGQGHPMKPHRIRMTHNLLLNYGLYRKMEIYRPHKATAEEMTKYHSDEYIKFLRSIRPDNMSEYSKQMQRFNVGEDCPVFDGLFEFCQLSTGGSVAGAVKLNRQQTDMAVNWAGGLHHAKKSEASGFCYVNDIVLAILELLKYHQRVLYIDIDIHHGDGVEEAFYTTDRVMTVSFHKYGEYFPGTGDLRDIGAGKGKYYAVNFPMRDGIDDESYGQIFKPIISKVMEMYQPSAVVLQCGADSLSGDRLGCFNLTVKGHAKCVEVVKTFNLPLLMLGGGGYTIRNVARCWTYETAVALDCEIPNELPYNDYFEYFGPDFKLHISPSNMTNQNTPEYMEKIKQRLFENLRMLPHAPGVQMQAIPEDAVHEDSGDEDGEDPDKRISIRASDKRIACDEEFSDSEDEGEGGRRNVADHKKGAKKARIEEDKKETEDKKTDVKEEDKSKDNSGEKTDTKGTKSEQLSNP
Chain of HDAC1 (Q13547 whole entry): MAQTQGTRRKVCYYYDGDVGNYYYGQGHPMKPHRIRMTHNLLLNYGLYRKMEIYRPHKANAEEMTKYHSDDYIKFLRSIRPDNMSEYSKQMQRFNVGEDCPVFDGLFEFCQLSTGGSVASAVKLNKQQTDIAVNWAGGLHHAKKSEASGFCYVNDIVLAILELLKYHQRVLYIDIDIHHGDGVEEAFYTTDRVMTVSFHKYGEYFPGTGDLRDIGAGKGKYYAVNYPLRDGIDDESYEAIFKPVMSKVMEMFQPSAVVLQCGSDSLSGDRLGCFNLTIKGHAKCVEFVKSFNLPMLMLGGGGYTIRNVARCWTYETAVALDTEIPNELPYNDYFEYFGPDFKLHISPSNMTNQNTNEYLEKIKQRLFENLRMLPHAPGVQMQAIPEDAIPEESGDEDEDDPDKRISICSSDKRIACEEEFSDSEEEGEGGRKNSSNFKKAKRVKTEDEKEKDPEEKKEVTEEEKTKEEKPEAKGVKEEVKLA

| SMILES | IC50 (HDAC1; Table 2) [nM] | IC50 (HDAC2; Table 2) | IC50 HDAC3 (HDAC3; Table 2) | IC50 (HDAC3; Table 2) [nM] | IC50 (HDAC1; Table 4) [nM] | IC50 (HDAC2; Table 4) [nM] | IC50 (HDAC3; Table 4) [nM] | Gata2 mRNA (Gata2 mRNA) |
| --- | --- | --- | --- | --- | --- | --- | --- | --- |
| Nc1ccc(-c2ccccc2)cc1NC(=O)c1cnc2c(C3CC3)c(NCc3ccccc3)ccc2c1 [N-(4-amino-[1,1′-biphenyl]-3-yl)-7-(benzylamino)-8-cyclopropylquinoline-3-carboxamide] | 652 | > 2000 nM | HDAC3 = No inhibition |  |  |  |  |  |
| COCCN(C)c1cc2ncc(C(=O)Nc3cc(-c4cccs4)ccc3N)cc2cc1C1CC1 [N-(2-amino-5-(thiophen-2-yl)phenyl)-6-cyclopropyl-7-((2-methoxyethyl)(methyl)amino)quinoline-3-carboxamide] | 944 | 667 nM |  | > 2000 |  |  |  |  |
| Nc1ccccc1NC(=O)c1ccc(N2CCNCC2)cc1C1CC1 [Compound 2006] |  |  |  |  | 1400 | > 2000 | 23 |  |
| Nc1ccc(-c2ccccc2)cc1NC(=O)c1ccc2nn(CCN3CCOCC3)cc2c1 [N-(4-amino-[1,1′-biphenyl]-3-yl)-2-(2-morpholinoethyl)-2H-indazole-5-carboxamide] | 11 | 23 nM |  | 477 |  |  |  |  |
| CC1(Nc2ccc(C(=O)Nc3cc(-c4ccncc4)ccc3N)cc2)CCN(C(=O)N2CCOCC2)CC1 [Compound 2010] |  |  |  |  | 12 | 16.8 | 511 | induction of Gata2 mRNA |
| COCCN(C)c1cc2ncc(C(=O)Nc3cc(-c4ccccc4)ccc3N)cc2cc1C1CC1 [N-(4-amino-[1,1′-biphenyl]-3-yl)-6-cyclopropyl-7-((2-methoxyethyl)(methyl)amino)quinoline-3-carboxamide] | > 2000 | 1220 nM |  | > 2000 |  |  |  |  |
| CC1(Nc2ncc(C(=O)Nc3cc(-c4cccs4)ccc3N)cn2)CCN(C(=O)N2CCNCC2)CC1 [Compound 2008] |  |  |  |  | 7.27 | 25.9 | 195 | induction of Gata2 mRNA |
| Nc1ccc(-c2cccs2)cc1NC(=O)/C=C/c1ccc(N2CCNCC2)c(C2CC2)c1 [Compound 2002] |  |  |  |  | 14 | 21.9 | 136 | induction of Gata2 mRNA |
| Nc1ccc(-c2ccccc2)cc1NC(=O)c1cnc2c(C3CC3)c(N3CCOCC3)ccc2c1 [N-(4-amino-[1,1′-biphenyl]-3-yl)-8-cyclopropyl-7-morpholinoquinoline-3-carboxamide] | 295 | 799 nM |  | > 2000 |  |  |  |  |
| COCCn1cc(C2CC2)c2cc(C(=O)Nc3cc(-c4ccccc4)ccc3N)ccc21 [N-(4-amino-[1,1′-biphenyl]-3-yl)-3-cyclopropyl-1-(2-methoxyethyl)-1H-indole-5-carboxamide] | > 2000 | > 2000 nM |  | > 2000 |  |  |  |  |
| COCCNc1cc2ncc(C(=O)Nc3cc(-c4cccs4)ccc3N)cc2cc1C1CC1 [N-(2-amino-5-(thiophen-2-yl)phenyl)-6-cyclopropyl-7-((2-methoxyethyl)amino)quinoline-3-carboxamide] | 89 | 243 nM |  | 1550 |  |  |  |  |
| Nc1ccc(-c2cccs2)cc1NC(=O)c1ccc(N2CCNCC2)cc1C1CC1 [Compound 2004] |  |  |  |  | 11.2 | 8.9 | 207 | induction of Gata2 mRNA |
| CN1CCN(c2ccc(C(=O)Nc3cc(-c4ccccc4)ccc3N)cc2C2CC2)CC1 [Compound 2003] |  |  |  |  | 85 | 79.1 | 491 | induction of Gata2 mRNA |
| Nc1ccc(-c2cccs2)cc1NC(=O)c1cnc(NC2CCN(C(=O)N3CCOCC3)CC2)nc1 [Compound 2007] |  |  |  |  | 14.9 | 55.5 | 284 | induction of Gata2 mRNA |
| Nc1ccc(-c2ccccc2)cc1NC(=O)c1cnc2c(C3CC3)c(N3CCNCC3)ccc2c1 [N-(4-amino-[1,1′-biphenyl]-3-yl)-8-cyclopropyl-7-(piperazin-1-yl)quinoline-3-carboxamide] | 7.8 | 15 nM |  | 164 |  |  |  |  |
| Nc1ccc(-c2ccccc2)nc1NC(=O)c1cnc2cc(N3CCNCC3)ccc2c1 [N-(3-amino-6-phenylpyridin-2-yl)-7-(piperazin-1-yl)quinoline-3-carboxamide] | 1970 | 336 nM |  | 798 |  |  |  |  |
| Nc1ccc(-c2ccccc2)cc1NC(=O)c1ccc2c(cnn2CCN2CCOCC2)c1 [N-(4-amino-[1,1′-biphenyl]-3-yl)-1-(2-morpholinoethyl)-1H-indazole-5-carboxamide] | 7.4 | 19 nM |  | 344 |  |  |  |  |

| SMILES | IC50 (HDAC1; Table 2) [nM] | IC50 (HDAC2; Table 2) | IC50 HDAC3 (HDAC3; Table 2) | IC50 (HDAC3; Table 2) [nM] | IC50 (HDAC1; Table 4) [nM] | IC50 (HDAC2; Table 4) [nM] | IC50 (HDAC3; Table 4) [nM] | Gata2 mRNA (Gata2 mRNA) |
| --- | --- | --- | --- | --- | --- | --- | --- | --- |
| Nc1ccc(-c2ccccc2)cc1NC(=O)c1ccc2c(c1)cc(C1CC1)n2CCN1CCOCC1 [N-(4-amino-[1,1′-biphenyl]-3-yl)-2-cyclopropyl-1-(2-morpholinoethyl)-1H-indole-5-carboxamide] | 15 | 70 nM |  | 689 |  |  |  |  |
| Nc1cc(-c2ccccc2)sc1NC(=O)c1cnc2cc(N3CCNCC3)ccc2c1 [N-(3-amino-5-phenylthiophen-2-yl)-7-(piperazin-1-yl)quinoline-3-carboxamide] | > 2000 | > 2000 nM |  | > 2000 |  |  |  |  |
| CC1(Nc2ncc(C(=O)Nc3cc(-c4cccs4)ccc3N)cn2)CCN(C(=O)N2CCCC2)CC1 [Compound 2005] |  |  |  |  | 10.2 | 14.1 | 673 | induction of Gata2 mRNA |
| Nc1ccc(-c2ccccc2)cc1NC(=O)c1ccc2c(c1)c(C1CC1)cn2CCN1CCOCC1 [N-(4-amino-[1,1′-biphenyl]-3-yl)-3-cyclopropyl-1-(2-morpholinoethyl)-1H-indole-5-carboxamide] | > 2000 | 681 nM |  | 1900 |  |  |  |  |
| CN1CCN(C(=O)N2CCC(C)(Nc3ncc(C(=O)Nc4cc(-c5cccs5)ccc4N)cn3)CC2)CC1 [Compound 2009] |  |  |  |  | 8.53 | 31.5 | 259 |  |
| Nc1ccc(-c2ccccc2)cc1NC(=O)/C=C/c1ccc(N2CCNCC2)c(C2CC2)c1 [Compound 2001] |  |  |  |  | 27.3 | 32.3 | 218 | induction of Gata2 mRNA |
| Nc1ccc(-c2cccs2)cc1NC(=O)c1cnc2c(C3CC3)c(N3CCNCC3)ccc2c1 [N-(2-amino-5-(thiophen-2-yl)phenyl)-8-cyclopropyl-7-(piperazin-1-yl)quinoline-3-carboxamide] | 3.1 | 14 nM |  | 99 |  |  |  |  |
| Nc1cnc(-c2ccccc2)cc1NC(=O)c1cnc2cc(N3CCNCC3)ccc2c1 [N-(5-amino-2-phenylpyridin-4-yl)-7-(piperazin-1-yl)quinoline-3-carboxamide] | 1230 | 1190 nM and 1880 nM |  |  |  |  |  |  |
| Nc1ccc(-c2ccccc2)cc1NC(=O)c1cnc2c(ccn2CCN2CCOCC2)c1 [N-(4-amino-[1,1′-biphenyl]-3-yl)-1-(2-morpholinoethyl)-1H-pyrrolo[2,3-b]pyridine-5-carboxamide] | 6.8 | 31 nM |  | 373 |  |  |  |  |
| Nc1ccc(-c2cccs2)cc1NC(=O)c1ccc2nc(N3CCNCC3)cnc2c1 [N-(2-amino-5-(thiophen-2-yl)phenyl)-2-(piperazin-1-yl)quinoxaline-6-carboxamide] | 7 | 12 nM |  | 71 |  |  |  |  |
| Nc1sc(-c2ccccc2)cc1NC(=O)c1cnc2cc(N3CCNCC3)ccc2c1 [N-(2-amino-5-phenylthiophen-3-yl)-7-(piperazin-1-yl)quinoline-3-carboxamide] | 1210 | 193 nM |  | 171 |  |  |  |  |
| CN1CCN(CCn2ccc3cc(C(=O)Nc4cc(-c5ccccc5)ccc4N)ccc32)CC1 [N-(4-amino-[1,1′-biphenyl]-3-yl)-1-(2-(4-methylpiperazin-1-yl)ethyl)-1H-indole-5-carboxamide] | 7.1 | 11 nM |  | 175 |  |  |  |  |
| COCCNc1ccc2cc(C(=O)Nc3cc(-c4ccccc4)ccc3N)cnc2c1C1CC1 [N-(4-amino-[1,1′-biphenyl]-3-yl)-8-cyclopropyl-7-((2-methoxyethyl)amino)quinoline-3-carboxamide] |  | 301 nM |  | > 2000 |  |  |  |  |
| Nc1ccc(-c2ccncc2)cc1NC(=O)c1ccc2c(c1)cc(C1CC1)n2CCN1CCOCC1 [Compound Y] |  |  |  |  |  |  |  | induction of Gata2 mRNA |
| Nc1ccc(-c2ccccc2)cc1NC(=O)c1cnc2c(N3CCNCC3)c(C3CC3)ccc2c1 [N-(4-amino-[1,1′-biphenyl]-3-yl)-7-cyclopropyl-8-(piperazin-1-yl)quinoline-3-carboxamide] | 103 | 56 nM |  | 257 |  |  |  |  |
| Nc1ccccc1NC(=O)c1ccc2nc(N3CCNCC3)ccc2c1 [N-(2-aminophenyl)-2-(piperazin-1-yl)quinoline-6-carboxamide] | > 2000 | 624 nM |  | 104 |  |  |  |  |
| COCCOc1cc2ncc(C(=O)Nc3cc(-c4ccccc4)ccc3N)cc2cc1C1CC1 [N-(4-amino-[1,1′-biphenyl]-3-yl)-6-cyclopropyl-7-(2-methoxyethoxy)quinoline-3-carboxamide] | > 2000 | 1560 nM |  | > 2000 |  |  |  |  |
